Measurements taken from US11578343B2, “CAS9 proteins including ligand-dependent inteins” (President and Fellows of Harvard College, priority 2014, dated 2023).

Columns and labels:
Type in all cases: cell-based, human
[1] = system: genomic EGFP locus; assay: Genomic EGFP disruption in HEK293-GFP stable cells (loss of GFP by flow cytometry); conditions: for Loss of GFP expression / nuclease activity, in words: with or without 1 μM 4-HT, FIG. 3c
Protocol: HEK293-GFP stable cells were transfected with the Cas9 expression plasmid, a gRNA (targeting Emerald GFP; Guilinger et al., Nature Biotechnology (2014)), and iRFP670 (transfection control), using Lipofectamine 2000. Twelve hours after transfection, media, either containing 4-HT (1 μM) or without 4-HT, was added.
Five days after transfection, cells were trypsinized and analyzed on a flow cytometer. Cells lacking GFP indicated genome modification. Cas9 variants that induced minimal genome modification in the absence of 4-HT but induce significant genome modification in the presence of 4-HT were deemed small-molecule-regulated variants in this Example.
Additionally, a time course was performed in which incubation with 4-HT was limited to 2, 4, 8, 12 or 24 hours, after which point the media was replaced.
We genetically inserted the 4-HT-dependent intein at each of fifteen positions in Cas9 (Cys80, Ala127, Thr146, Ser219, Thr333, Thr519, Cys574, Thr622, Ser701, Ala728, Thr995, Ser1006, Ser1154, Ser1159, and Ser1274), chosen to distribute the location of the intein across the structural domains of Cas9^23 (FIG. 3b and Example 1). Because intein splicing leaves behind a single Cys residue, the intein was inserted in place of one Cas9 amino acid in each of the 15 candidate constructs. In addition to replacing natural Cys amino acids, we also favored replacing Ala, Ser, or Thr residues to minimize the likelihood that the resulting Cys point mutation resulting from protein splicing would disrupt Cas9 activity. The 15 intein-Cas9 candidates were expressed in HEK293-GFP cells together with a sgRNA that targets the genomic EGFP locus in these cells. Twelve hours post-transfection, cells were treated with or without 1 μM 4-HT. Five days post-transfection, cells were analyzed on a flow cytometer for loss of GFP expression from Cas9-mediated EGFP cleavage and subsequent non-homologous end joining.
Modification of genomic GFP. HEK293-GFP stable cells (GenTarget), which constitutively express Emerald GFP, served as the reporter cell line. Cells were maintained in “full serum media”: Dulbecco's Modified Eagle's Media plus GlutaMax (Life Technologies) with 10% (vol/vol) FBS and penicillin/streptomycin (1×, Amresco). 5×10^4 cells were plated on 48-well collagen-coated Biocoat plates (Becton Dickinson). 16-18 h after plating, cells were transfected with Lipofectamine 2000 (Life Technologies) according to the manufacturer's protocol. Briefly, 1.5 μL of Lipofectamine 2000 was used to transfect 650 ng of total plasmid: 500 ng Cas9 expression plasmid, 125 ng sgRNA expression plasmid, and 25 ng near-infrared iRFP670 expressing plasmid (Addgene plasmid 45457)^26. 12 h after transfection, the media was replaced with full serum media, with or without 4-HT (1 μM, Sigma-Aldrich T176). The media was replaced again 3-4 days after transfection. Five days after transfection, cells were trypsinized and resuspended in full serum media and analyzed on a C6 flow cytometer (Accuri) with a 488-nm laser excitation and 520-nm filter with a 20-nm band pass. Transfections and flow cytometry measurements were performed in triplicate.

[2] = system: HEK293-GFP stable cells; assay: Effect of 4-HT on cellular toxicity (live cell population, TO-PRO-3 stain, flow cytometry); conditions: 12 or 60 h of treatment with 1 μM 4-HT; untransfected or transfected HEK293 cells; FIG. 5
Protocol: FIG. 5. Effect of 4-HT on cellular toxicity. Untransfected HEK293-GFP stable cells, and cells transfected with intein-Cas9(5219) and sgRNA expression plasmids, were treated with or without 4-HT (1 μM). 12 h after transfection, the media was replaced with full serum media, with or without 4-HT (1 μM). Cells were thus exposed to 4-HT for 0, 12, or 60 h. The live cell population was determined by flow cytometry 60 h after transfection using TO-PRO-3 stain (Life Technologies). Error bars reflect the standard deviation of six technical replicates.
We assayed these Cas9:sgRNA combinations in human cells for their ability to modify the three on-target loci as well as 11 known off-target genomic sites (Table 3)^4,5,10,13. Cells were treated with or without 1 μM 4-HT during transfection, and after 12 h the media was replaced with fresh media lacking 4-HT. […] Genomic DNA was isolated 60 h post-transfection and analyzed by high-throughput DNA sequencing

[3] = system: genomic EGFP locus; assay: Genomic EGFP disruption in HEK293-GFP stable cells (loss of GFP by flow cytometry); conditions: FIG. 12
[4] = +4-HT (1 μM, added 12 h after transfection), five days after transfection, Table 1
[5] = −4-HT, five days after transfection, Table 1
[6] = +4-HT 2 hrs, then media replaced, Table 2
[7] = +4-HT 4 hrs, then media replaced, Table 2
[8] = +4-HT 8 hrs, then media replaced, Table 2
[9] = +4-HT 12 hrs, then media replaced, Table 2
[10] = +4-HT 24 hrs, then media replaced, Table 2

Substance | Cells without GFP (%) [1, 4] [%] | Loss of GFP expression / nuclease activity, in words [1] | Cells without GFP (%) [1, 5] [%] | Cells without GFP (%) [1, 6] [%] | Cells without GFP (%) [1, 7] [%] | Cells without GFP (%) [1, 8] [%] | Cells without GFP (%) [1, 9] [%] | Cells without GFP (%) [1, 10] [%] | Cells without GFP (%) ([1]; −4-HT, time course, Table 2) | Cellular toxicity [2] | Ability of β-estradiol to trigger Cas9 activity (genomic EGFP disruption) [3]
intein(Thr995)-Cas9: Cas9 with 37R3-2 intein replacing Thr995 (SEQ ID NO: 37) | 21.39 | high DNA modification rates both in the presence and absence of 4-HT | 14.95 |  |  |  |  |  |  |  | 
intein(Thr519)-Cas9: Cas9 with 37R3-2 intein replacing Thr519 (SEQ ID NO: 32) | 25.96 | 4-HT-dependent loss of GFP expression | 9.49 | 14.55 | 13.98 | 14.74 | 13.93 | 18.04 | 4.29 |  | 
intein(Cys80)-Cas9: Cas9 with 37R3-2 intein replacing Cys80 (SEQ ID NO: 27) | 4.96 | lack of nuclease activity | 7.08 |  |  |  |  |  |  |  | 
intein(Ala127)-Cas9: Cas9 with 37R3-2 intein replacing Ala127 (SEQ ID NO: 28) | 19.73 | 4-HT-dependent loss of GFP expression | 7.97 | 18.95 | 18.57 | 18.64 | 18.35 | 16.83 | 5.03 |  | 
intein(Ser701)-Cas9: Cas9 with 37R3-2 intein replacing Ser701 (SEQ ID NO: 35) | 9.56 | lack of nuclease activity | 6.54 |  |  |  |  |  |  |  | 
intein(Thr333)-Cas9: Cas9 with 37R3-2 intein replacing Thr333 (SEQ ID NO: 31) | 9.17 | 4-HT-dependent loss of GFP expression | 4.96 |  |  |  |  |  |  |  | 
intein(Thr146)-Cas9: Cas9 with 37R3-2 intein replacing Thr146 (SEQ ID NO: 29) | 21.60 | 4-HT-dependent loss of GFP expression | 8.77 | 16.29 | 15.07 | 13.65 | 14.44 | 19.57 | 4.28 |  | 
4-hydroxytamoxifen [4-HT] |  |  |  |  |  |  |  |  |  | no cellular toxicity | 
intein-Cas9(5219-G521R): intein-Cas9(S219) with point mutation G521R in the estrogen receptor ligand-binding domain (probably SEQ ID NO: 166) |  |  |  |  |  |  |  |  |  |  | eliminates the ability of β-estradiol to trigger Cas9 activity
intein(Thr622)-Cas9: Cas9 with 37R3-2 intein replacing Thr622 (SEQ ID NO: 34) | 3.96 | lack of nuclease activity | 5.67 |  |  |  |  |  |  |  | 
intein(Ser1274)-Cas9: Cas9 with 37R3-2 intein replacing Ser1274 (SEQ ID NO: 41) | 5.00 | lack of nuclease activity | 3.08 |  |  |  |  |  |  |  | 
intein(Ala728)-Cas9: Cas9 with 37R3-2 intein replacing Ala728 (SEQ ID NO: 36) | 41.89 | high DNA modification rates both in the presence and absence of 4-HT | 20.82 |  |  |  |  |  |  |  | 
intein(Ser1006)-Cas9: Cas9 with 37R3-2 intein replacing Ser1006 (SEQ ID NO: 38) | 12.61 | 4-HT-dependent loss of GFP expression | 6.80 |  |  |  |  |  |  |  | 
intein(Ser1159)-Cas9: Cas9 with 37R3-2 intein replacing Ser1159 (SEQ ID NO: 40) | 13.21 | 4-HT-dependent loss of GFP expression | 5.65 |  |  |  |  |  |  |  | 
intein(Ser1154)-Cas9: Cas9 with 37R3-2 intein replacing Ser1154 (SEQ ID NO: 39) | 41.94 | high DNA modification rates both in the presence and absence of 4-HT | 21.14 |  |  |  |  |  |  |  | 
